Data taken from patent US12325701B2, “YKL-40 inhibitors and their therapeutic” (Molecure S.A., priority 2022, dated 2025).
Structures can show the parent of a compound that is named as a salt. Where two headings read alike, the source gives them in different places.

Legend:
[1] = biological target: YKL-40 (YKL-40: heparan sulfate interaction) (Homo sapiens (Human), UniProt P36222); assay: YKL-40:HS assay, heparan sulfate interference AlphaScreen; details: read-out: YKL-40:HS, IC50/max % inh (max % inh)
[2] = biological target: YKL-40 (YKL-40-histag, chitin binding site) (Homo sapiens (Human), UniProt P36222); assay: YKL-40:4 assay, competitive chitin binding site AlphaScreen
Chain of YKL-40 (YKL-40-histag, chitin binding site) (P36222 22-383): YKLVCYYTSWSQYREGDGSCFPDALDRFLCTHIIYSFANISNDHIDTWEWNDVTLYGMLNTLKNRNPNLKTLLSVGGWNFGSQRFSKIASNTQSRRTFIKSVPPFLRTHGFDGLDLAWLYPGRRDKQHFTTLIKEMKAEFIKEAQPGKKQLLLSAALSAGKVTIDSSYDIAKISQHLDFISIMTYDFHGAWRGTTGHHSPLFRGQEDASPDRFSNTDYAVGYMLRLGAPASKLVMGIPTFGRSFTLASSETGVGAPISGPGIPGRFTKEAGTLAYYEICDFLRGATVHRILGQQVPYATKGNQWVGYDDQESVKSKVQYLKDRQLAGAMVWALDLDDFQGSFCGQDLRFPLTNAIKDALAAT

Chain of YKL-40 (YKL-40: heparan sulfate interaction) (P36222 22-383): as above

IC50 [2] [µM] | Structure (SMILES) | other results
– | CN1C[C@H](Cc2ccc(Cl)cc2)N(C2CCN(c3cc(Cl)ccn3)CC2)C[C@@H]1CN1CCOCC1 [Compound 51, 4-(((2S,5S)-5-(4-chlorobenzyl)-4-(1-(4-chloropyridin-2-yl)piperidin-4-yl)-1-methyl-piperazin-2-yl)methyl)morpholine hydrochloride] | inhibition [1]: 52%
– | CN1C[C@H](Cc2ccc(Cl)cc2)N(C2CCN(c3ccccn3)CC2)C[C@@H]1Cc1ccc(Cl)cc1 [Compound 63, (2S,5S)-2,5-bis(4-chlorobenzyl)-1-methyl-4-(1-(pyridin-2-yl)piperidin-4-yl)piperazine 2,2,2-trifluoroacetate] | inhibition [1]: 85%
– | CN1C[C@H](Cc2ccc(Cl)cc2)N(C2CCN(c3cc(Cl)ccn3)CC2)C[C@@H]1Cn1ccnc1 [Compound 82, (2R,5S)-2-((1H-imidazol-1-yl)methyl)-5-(4-chlorobenzyl)-4-(1-(4-chloropyridin-2-yl)piperidin-4-yl)-1-methylpiperazine hydrochloride] | inhibition [1]: 75%
– | CNC(=O)CN1C[C@H](Cc2ccc(Cl)cc2)N(C2CCN(c3ccccn3)CC2)C[C@@H]1CC(C)C [Compound 95, 2-((2S,5S)-5-(4-chlorobenzyl)-2-isobutyl-4-(1-(pyridin-2-yl)piperidin-4-yl)piperazin-1-yl)-N-methylacetamide 2,2,2-trifluoroacetate] | inhibition [1]: 85%
> 10 | C[C@H]1CN(C2CCN(c3ncccc3O)CC2)[C@@H](Cc2ccc(Cl)cc2)CO1 [Compound 160, 2-(4-((2S,5S)-5-(4-chlorobenzyl)-2-methylmorpholino)piperidin-1-yl)pyridin-3-ol 2,2,2-trifluoroacetate] | –
> 10 | COc1cccnc1N1CCC(N2C[C@H](C)OC[C@@H]2Cc2ccc(Cl)cc2)CC1 [Compound 162, (2S,5S)-5-(4-chlorobenzyl)-4-(1-(3-methoxypyridin-2-yl)piperidin-4-yl)-2-methylmorpholine 2,2,2-trifluoroacetate] | –
> 10 | CC(C)c1nc(N2CCC(N3C[C@H](C)OC[C@@H]3Cc3ccc(Cl)cc3)CC2)no1 [Compound 163, (2S,5S)-5-(4-chlorobenzyl)-4-(1-(5-isopropyl-1,2,4-oxadiazol-3-yl)piperidin-4-yl)-2-methylmorpholine 2,2,2-trifluoroacetate] | –
> 10 | C[C@H]1CN(C2CCN(c3noc(C(F)(F)F)n3)CC2)[C@@H](Cc2ccc(Cl)cc2)CO1 [Compound 164, (2S,5S)-5-(4-chlorobenzyl)-2-methyl-4-(1-(5-(trifluoromethyl)-1,2,4-oxadiazol-3-yl)piperidin-4-yl)morpholine 2,2,2-trifluoroacetate] | –
> 10 | C[C@H]1CN(C2CCN(c3noc(=O)[nH]3)CC2)[C@@H](Cc2ccc(Cl)cc2)CO1 [Compound 165, 3-(4-((2S,5S)-5-(4-chlorobenzyl)-2-methylmorpholino)piperidin-1-yl)-1,2,4-oxadiazol-5(4H)-one 2,2,2-trifluoroacetate] | –
> 10 | C[C@H]1CN(C2CCN(c3nnn[nH]3)CC2)[C@@H](Cc2ccc(Cl)cc2)CO1 [Compound 166, (2S,5S)-4-(1-(1H-tetrazol-5-yl)piperidin-4-yl)-5-(4-chlorobenzyl)-2-methylmorpholine 2,2,2-trifluoroacetate] | –
> 10 | C[C@H]1CN(C2CCN(c3cc(=O)[nH]cn3)CC2)[C@@H](Cc2ccc(Cl)cc2)CO1 [Compound 167, 6-(4-((2S,5S)-5-(4-chlorobenzyl)-2-methylmorpholino)piperidin-1-yl)pyrimidin-4(3H)-one 2,2,2-trifluoroacetate] | –
> 10 | C[C@H]1CN(C2CCN(c3ncnc(Cl)n3)CC2)[C@@H](Cc2ccc(Cl)cc2)CO1 [Compound 169, (2S,5S)-4-(1-(4-chloro-1,3,5-triazin-2-yl)piperidin-4-yl)-5-(4-chlorobenzyl)-2-methylmorpholine 2,2,2-trifluoroacetate] | –
> 10 | C[C@H]1CN(C2CCN(c3ncnc(O)n3)CC2)[C@@H](Cc2ccc(Cl)cc2)CO1 [Compound 170] | –
> 10 | COc1ncnc(N2CCC(N3C[C@H](C)OC[C@@H]3Cc3ccc(Cl)cc3)CC2)n1 [Compound 171, (2S,5S)-5-(4-chlorobenzyl)-4-(1-(4-methoxy-1,3,5-triazin-2-yl)piperidin-4-yl)-2-methylmorpholine 2,2,2-trifluoroacetate] | –
> 10 | Cc1ncnc(N2CCC(N3C[C@H](C)OC[C@@H]3Cc3ccc(Cl)cc3)CC2)n1 [Compound 172, (2S,5S)-5-(4-chlorobenzyl)-2-methyl-4-(1-(4-methyl-1,3,5-triazin-2-yl)piperidin-4-yl)morpholine 2,2,2-trifluoroacetate] | –
> 10 | C[C@H]1CN(C2CCN(c3ncnc(C#N)n3)CC2)[C@@H](Cc2ccc(Cl)cc2)CO1 [Compound 173, 4-(4-((2S,5S)-5-(4-chlorobenzyl)-2-methylmorpholino)piperidin-1-yl)-1,3,5-triazine-2-carbonitrile 2,2,2-trifluoroacetate] | –

IC50 [2] [µM] | Structure (SMILES) | other results
> 10 | C[C@H]1CN(C2CCN(c3ncnc(N)n3)CC2)[C@@H](Cc2ccc(Cl)cc2)CO1 [Compound 174, 4-(4-((2S,5S)-5-(4-chlorobenzyl)-2-methylmorpholino)piperidin-1-yl)-1,3,5-triazin-2-amine 2,2,2-trifluoroacetate] | –
> 10 | C[C@H]1CN(C2CCN(c3ncnc(N(C)C)n3)CC2)[C@@H](Cc2ccc(Cl)cc2)CO1 [Compound 175, 4-(4-((2S,5S)-5-(4-chlorobenzyl)-2-methylmorpholino)piperidin-1-yl)-N,N-dimethyl-1,3,5-triazin-2-amine 2,2,2-trifluoroacetate] | –
> 10 | C[C@H]1CN(C2CCN(c3ncns3)CC2)[C@@H](Cc2ccc(Cl)cc2)CO1 [Compound 179, (2S,5S)-4-(1-(1,2,4-thiadiazol-5-yl)piperidin-4-yl)-5-(4-chlorobenzyl)-2-methylmorpholine 2,2,2-trifluoroacetate] | –
> 10 | Cc1nsc(N2CCC(N3C[C@H](C)OC[C@@H]3Cc3ccc(Cl)cc3)CC2)n1 [Compound 180, (2S,5S)-5-(4-chlorobenzyl)-2-methyl-4-(1-(3-methyl-1,2,4-thiadiazol-5-yl)piperidin-4-yl)morpholine 2,2,2-trifluoroacetate] | –
> 10 | C[C@H]1CN(C2CCN(c3nncs3)CC2)[C@@H](Cc2ccc(Cl)cc2)CO1 [Compound 181, (2S,5S)-4-(1-(1,3,4-thiadiazol-2-yl)piperidin-4-yl)-5-(4-chlorobenzyl)-2-methylmorpholine 2,2,2-trifluoroacetate] | –
> 10 | Cc1nnc(N2CCC(N3C[C@H](C)OC[C@@H]3Cc3ccc(Cl)cc3)CC2)s1 [Compound 182, (2S,5S)-5-(4-chlorobenzyl)-2-methyl-4-(1-(5-methyl-1,3,4-thiadiazol-2-yl)piperidin-4-yl)morpholine 2,2,2-trifluoroacetate] | –
> 10 | Cc1noc(N2CCC(N3C[C@H](C)OC[C@@H]3Cc3ccc(Cl)cc3)CC2)n1 [Compound 188, (2S,5S)-5-(4-chlorobenzyl)-2-methyl-4-(1-(3-methyl-1,2,4-oxadiazol-5-yl)piperidin-4-yl)morpholine 2,2,2-trifluoroacetate] | –
> 10 | Cc1cccnc1N1CCC(N2C[C@H](C)OC[C@@H]2Cc2ccc(Cl)cc2)CC1 [Example 16, (2S,5S)-5-(4-chlorobenzyl)-2-methyl-4-(1-(3-methylpyridin-2-yl)piperidin-4-yl)morpholine 2,2,2-trifluoroacetate] | –
> 10 | C[C@H]1CN(C2CCN(c3cccc(C#N)n3)CC2)[C@@H](Cc2ccc(Cl)cc2)CO1 [Example 18, 6-(4-((2S,5S)-5-(4-chlorobenzyl)-2-methylmorpholino)piperidin-1-yl)picolinonitrile 2,2,2-trifluoroacetate] | –
> 10 | C[C@H]1CN(C2CCN(c3ccc(C#N)cn3)CC2)[C@@H](Cc2ccc(Cl)cc2)CO1 [Example 19, 6-(4-((2S,5S)-5-(4-chlorobenzyl)-2-methylmorpholino)piperidin-1-yl)nicotinonitrile 2,2,2-trifluoroacetate] | –
> 10 | C[C@H]1CN(C2CCN(c3cc(F)ncn3)CC2)[C@@H](Cc2ccc(Cl)cc2)CO1 [Example 24, (2S,5S)-5-(4-chlorobenzyl)-4-(1-(6-fluoropyrimidin-4-yl)piperidin-4-yl)-2-methylmorpholine 2,2,2-trifluoroacetate] | –
> 10 | C[C@H]1CN(C2CCN(c3ncc(F)cc3F)CC2)[C@@H](Cc2ccc(Cl)cc2)CO1 [Example 25, (2S,5S)-5-(4-chlorobenzyl)-4-(1-(3,5-difluoropyridin-2-yl)piperidin-4-yl)-2-methylmorpholine 2,2,2-trifluoroacetate] | –
> 10 | C[C@H]1CN(C2CCN(c3ccncn3)CC2)[C@@H](Cc2ccc(Cl)cc2)CO1 [Example 26, (2S,5S)-5-(4-chlorobenzyl)-2-methyl-4-(1-(pyrimidin-4-yl)piperidin-4-yl)morpholi-ne 2,2,2-trifluoroacetate] | –
> 10 | C[C@H]1CN(C2CCN(c3cccnc3)CC2)[C@@H](Cc2ccc(Cl)cc2)CO1 [Example 27, (2S,5S)-5-(4-chlorobenzyl)-2-methyl-4-(1-(pyridin-3-yl)piperidin-4-yl)morpholine 2,2,2-trifluoroacetate] | –
> 10 | C[C@H]1CN(C2CCN(c3ccncc3)CC2)[C@@H](Cc2ccc(Cl)cc2)CO1 [Example 28, (2S,5S)-5-(4-chlorobenzyl)-2-methyl-4-(1-(pyridin-4-yl)piperidin-4-yl)morpholine 2,2,2-trifluoroacetate] | –
– | C[C@H]1CN(C2CCN(c3ccccc3)CC2)[C@@H](Cc2ccc(Cl)cc2)CO1 [Example 37, (2S,5S)-5-(4-chlorobenzyl)-2-methyl-4-(1-phenylpiperidin-4-yl)morpholine dihydro-chloride] | IC50 ([2]; competition with biotinylated compound 4, 20 nM, YKL-40-histag 2.5 nM, read-out: YKL-40:4, IC50/Kd (IC50 range)): > 10 µM

Structure (SMILES) | IC50 [2] [µM] | other results
C[C@H]1CN(C2CCN(c3ncc(C(F)(F)F)o3)CC2)[C@@H](Cc2ccc(Cl)cc2)CO1 [Compound 168, (2S,5S)-5-(4-chlorobenzyl)-2-methyl-4-(1-(5-(trifluoromethyl)oxazol-2-yl)piperidin-4-yl)morpholine 2,2,2-trifluoroacetate] | > 10 | –
